From patent US20230097603A1, “NICOTINAMIDE MONONUCLEOTIDE DERIVATIVES FOR THE TREATMENT OF ARRHYTHMIA” (NUVAMID SA, priority 2020, published 2023)
“Also recorded” adds a separate entry of the source.

What was measured:
[1] = test system: ischaemia-reperfusion rat; test: Arrhythmia induced by ischaemia-reperfusion in anaesthetised rats; type: in vivo; settings: for ventricular fibrillation during the ischaemia (effect in words) / ventricular tachycardia during the ischaemia (effect in words) / incidence of ventricular tachycardia during reperfusion (effect in words) / duration of ventricular tachycardia during reperfusion (effect in words) / ventricular fibrillation during reperfusion (effect in words) / mortality during the reperfusion period (effect in words): iv; for ventricular fibrillation during the ischaemia (effect in words) / ventricular tachycardia during the ischaemia (effect in words): I-C 185 mg/kg 30 min before, cariporide 0.3 mg/kg 5 min before ischaemia; for incidence of ventricular tachycardia during reperfusion (effect in words) / duration of ventricular tachycardia during reperfusion (effect in words) / ventricular fibrillation during reperfusion (effect in words) / mortality during the reperfusion period (effect in words): I-C 185 mg/kg, cariporide 0.3 mg/kg; for duration of ventricular tachycardia during reperfusion (effect in words) / ventricular fibrillation during reperfusion (effect in words): vs carrier; for mortality during the reperfusion period (effect in words): carrier group 25% death
Protocol: Arrhythmias were obtained in an acute model of ischaemia-reperfusion in rats.
The rats were first anaesthetised, then intubated and mechanically ventilated, before being prepared for surgery.
Catheters were then placed in the carotid artery in order to measure the arterial pressure and in the caudal vein for the perfusion of drugs. The arterial catheter consists in a catheter filled with fluid which sends the pressure to a transducer located nearby. The mean arterial pressure is calculated electronically and recorded continuously.
A three-lead electrocardiogram (ECG) was recorded throughout the procedure by means of needle electrodes attached to the limbs.
The modifications to the ECG, mean arterial pressure (MAP) and the heart rate were measured before and during the occlusion-reperfusion period. The definitions of the arrhythmias are based on those described in the Lambeth conventions (Walker and al., The Lambeth conventions: guidelines for the study of arrhythmias in ischaemia infarction, and reperfusion, Cardiovascular Research, 1988, 22(7), 447-455). The ectopic activity has been categorized as a single ventricular premature beat (VPB), a ventricular tachycardia (VT, four or more consecutive VPBs) or a ventricular fibrillation (VF, inability to distinguish individual QRS complexes and to measure the rate). The arterial pressure traces were referred to in order to confirm which type of ectopic activity was produced, in particular to distinguish between polymorphic VT and VF. When the first is produced, the arterial pressure is generally still pulsatile whereas with VF, the arterial pressure falls rapidly towards zero and is no longer pulsatile. The VF can be sustained or can spontaneously return to a normal sinusoidal rhythm in rats. In all the experiments, the incidences of TV and VF as well as the duration of the ventricular tachycardia were noted.
The heart was then exposed by a left intercostal thoracotomy. After opening the pericardium, a 6.0 silk stitch was placed around the left coronary artery on a polypropylene tube in order to form a collar. The hearts were subjected to an ischaemia for 7 minutes by tightening the suture 5 minutes after the treatment. Finally, the collar occluder was released in order to allow the reperfusion of the myocardial tissue for 10 minutes. At the end of the reperfusion period, the rats were euthanised by cervical dislocation while still anaesthetised.
The means± the standard error on the mean are presented.
The statistical analysis was carried out using the GraphPad Prism 5 software. The Fisher test was used to analyse the differences between the incidences of arrhythmias, while the chi-squared test was used to compare the incidence of mortality. The Kruskall-Wallis test was used to analyse the differences between the duration of the tachycardia and the ventricular fibrillations and the difference in the number of ventricular fibrillations.
The rats were treated by the intravenous route with a saline solution, a compound of formula I-C at 185 mg/kg (30 minutes before the ischaemia) or cariporide at 0.3 mg/kg (5 minutes before the ischaemia). The animals were subjected to a 7-minute ischaemia and a 10-minute reperfusion. Throughout the experimental phase, the arterial pressure and ECG profiles were recorded continuously. Blood was sampled 5 minutes after the end of the reperfusion and the heart was weighed.

[2] = test system: arrhythmias induced by doxorubicin; test: Arrhythmia induced by doxorubicin in mice, heart rate by ECG; type: in vivo; settings: for heart rate 5 days after the injection of DOX (effect in words): vs DOX + carrier
Protocol: The goal of this study was to evaluate the effects of an i.p. administration of compounds I-C, I-J and I-K, at 180 mg/kg, on arrhythmias induced by doxorubicin. 76 male mice, 8 weeks old on arrival, were obtained from Janvier Labs, Le Genest St Isle, 53941 St Berthevin, France. Each animal was identified with an electronic chip. The powder of compounds I-C, I-J and I-K (180 mg/kg) was dissolved in the carrier (the solution was used at ambient temperature for a maximum of 1 day). […] Doxorubicin was prepared at 2 mg/mL and the administration volume was 10 mL/kg. The control group received an injection of saline solution. Each group comprises 14 to 24 mice. As indicated in the regulations relating to non-clinical laboratory studies, the groups of test and control animals have been kept under identical conditions. The envisaged duration of the study was 11 days. […] The treatment with compounds I-C, I-J and I-K was initiated after 5 days before the injection of DOX, once per day from Day 5 to Day 0. The mice were treated i.p with compounds I-C, I-J and I-K 30 minutes before the injection of DOX. The mice were treated i.p with compounds I-C, I-J and I-K during the duration of the experiment (J0 to J5) once per day. […] In particular, the heart rate was evaluated during the ECG: […]

infarction = settings: ischaemia of at least 30 minutes and reperfusion of at least 60 minutes; cited from earlier work
[3] = DOX 20 mg/kg i.p. + compound 180 mg/kg i.p. once per day
[4] = 185 mg/kg iv 30 minutes before ischaemia, 7-minute ischaemia
[5] = 185 mg/kg iv, 10-minute reperfusion

Question: Which results are given for CC(C)c1ccc(C(=O)NC(=N)N)cc1S(C)(=O)=O [Cariporide, reference compound]?
Answer: ventricular fibrillation during the ischaemia (effect in words) [1]: removed; ventricular tachycardia during the ischaemia (effect in words) [1]: removed; incidence of ventricular tachycardia during reperfusion (effect in words) ([1]; 10-minute reperfusion): no beneficial effect; duration of ventricular tachycardia during reperfusion (effect in words) ([1]; 10-minute reperfusion): tendency to be shorter; ventricular fibrillation during reperfusion (effect in words) ([1]; 10-minute reperfusion): removed; mortality during the reperfusion period (effect in words) [1]: removed

Question: Which “heart rate 5 days after the injection of DOX (effect in words)” value (from here on “heart rate 5 days … (effect in words)”) [2, 3] does the source give for NC(=O)c1ccc[n+]([C@@H]2O[C@H](COP(=O)([O-])O)[C@@H](O)[C@H]2O)c1 [I-C] here?
Answer: increase in heart rates; also recorded: significantly attenuated

Question: What about the “duration of ventricular tachycardia during the ischaemia” value [1, 4] of the same compound?
Answer: 0.2 ± 0.2 s

Question: What about the “incidence of ventricular tachycardia during the ischaemia” value [1, 4] of the same compound?
Answer: approximately 9%

Question: What about the “duration of ventricular fibrillation during reperfusion” value [1, 5] of the same compound?
Answer: 4.0±2.3 % of the duration of the reperfusion

Question: And the “incidence of ventricular fibrillation during reperfusion” value [1, 5]?
Answer: approximately 55%

Question: And the “number of ventricular fibrillations during reperfusion” value [1, 5]?
Answer: approximately one

Question: What about the “ventricular fibrillation during the ischaemia (effect in words)” value [1] of the same compound?
Answer: remove the ventricular fibrillation

Question: And the “ventricular tachycardia during the ischaemia (effect in words)” value [1]?
Answer: significantly reduce the incidence and duration

Question: What about the “incidence of ventricular tachycardia during reperfusion (effect in words)” value ([1]; 10-minute reperfusion) of the same compound?
Answer: no effect

Question: What about the “duration of ventricular tachycardia during reperfusion (effect in words)” value ([1]; 10-minute reperfusion) of the same compound?
Answer: appeared to reduce the duration

Question: And the “ventricular fibrillation during reperfusion (effect in words)” value ([1]; 10-minute reperfusion)?
Answer: tendency to reduce the incidence

Question: What about the “mortality during the reperfusion period (effect in words)” value [1] of the same compound?
Answer: removed mortality

Question: With NC(=O)c1ccc[n+]([C@@H]2O[C@H](COP(=O)([O-])OP(=O)([O-])OC[C@H]3O[C@H]([n+]4cccc(C(N)=O)c4)[C@H](O)[C@@H]3O)[C@@H](O)[C@H]2O)c1 [I-J] as the compound, how does the “heart rate 5 days after the injection of DOX” value [2, 3] read?
Answer: 470.1±18.8 bpm

Question: And the “heart rate 5 days … (effect in words)” value [2, 3]?
Answer: increase in heart rates; also recorded: significantly attenuated

Question: With NC(=O)c1ccc[n+]([C@H]2O[C@H](COP(=O)([O-])OP(=O)([O-])OC[C@H]3O[C@H]([n+]4cccc(C(N)=O)c4)[C@H](O)[C@@H]3O)[C@@H](O)[C@H]2O)c1 [I-K] as the compound, how does the “heart rate 5 days … (effect in words)” value [2, 3] read?
Answer: increase in heart rates; also recorded: significantly attenuated

Question: For NC(=O)c1ccc[n+]([C@@H]2O[C@H](COP(=O)([O-])O)[C@@H](O)[C@H]2O)c1 [NMN, Nicotinamide Mononucleotide], which “protective effect against infarction” value (infarction) is on record?
Answer: protects the heart

Question: With COc1cccc2c1C(=O)c1c(O)c3c(c(O)c1C2=O)C[C@@](O)(C(=O)CO)C[C@@H]3O[C@H]1C[C@H](N)[C@H](O)[C@H](C)O1 [doxorubicin, reference compound] as the compound, how does the “heart rate 5 days after the injection of DOX” value ([2]; DOX 20 mg/kg i.p. + carrier, control mice 525.6±19.8 bpm) read?
Answer: 365.1±23.9 bpm
